Measurements reported in US20240067693A1, “POLYPEPTIDES AND USES THEREOF” (MEDIMMUNE LIMITED, priority 2020, published 2024).
Numbered stars: 1 amine (or outer) side, 2 acyl side, 3 side chain; on linkers, the order of the positions; unused ones are H or OH. Bridge positions count the residues as written; N and C are the ends. Square brackets hold non-standard residues; d marks the D form. Side chains are listed from the residue outwards. Peptide text beside a SMILES is read from it. * marks the point of attachment. C20 diacid = O=C(O)CCCCCCCCCCCCCCCCCCC(=O)*; C18 diacid = O=C(O)CCCCCCCCCCCCCCCCC(=O)*; γGlu = O=C(O)[C@H](CCC(=O)[*:2])N[*:1]; Aib = CC(C)(N)C(=O)O

Columns and labels:
[1] = biological target: T1, human amylin receptor (calcitonin receptor co-expressed with receptor activity modifying protein, RAMP3) (hAMYR3) (Homo sapiens, UniProt O60896+P30988); experiment: cAMP production in 1321N1 cells with stable recombinant expression of human amylin receptor (hAMYR3); assay type: cell-based; details: for Ratio (selectivity hAMYR vs hCTR, ratio of EC50 values at the two receptors): EC50 hCTR / EC50 hAMYR3; for EC50: cAMP, 1321N1 cells, assay buffer with 0.1% BSA, read-out: EC50 (pM) hAMYR3
T1 construct: expressed in transfected cells
T1 sequence (P30988 25-474): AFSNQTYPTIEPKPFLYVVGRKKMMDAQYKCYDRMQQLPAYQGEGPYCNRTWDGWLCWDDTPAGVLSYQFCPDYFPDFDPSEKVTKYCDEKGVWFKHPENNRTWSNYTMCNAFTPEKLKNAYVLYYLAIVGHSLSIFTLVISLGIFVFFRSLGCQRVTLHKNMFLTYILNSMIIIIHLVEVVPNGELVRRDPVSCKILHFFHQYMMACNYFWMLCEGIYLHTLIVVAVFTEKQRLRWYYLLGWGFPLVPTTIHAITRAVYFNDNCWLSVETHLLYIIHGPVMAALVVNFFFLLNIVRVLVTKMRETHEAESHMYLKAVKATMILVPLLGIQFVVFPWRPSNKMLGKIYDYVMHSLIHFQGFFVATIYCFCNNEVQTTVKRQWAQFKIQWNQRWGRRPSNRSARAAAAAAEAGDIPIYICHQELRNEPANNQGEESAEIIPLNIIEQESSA
T1 sequence (O60896 24-148 partner): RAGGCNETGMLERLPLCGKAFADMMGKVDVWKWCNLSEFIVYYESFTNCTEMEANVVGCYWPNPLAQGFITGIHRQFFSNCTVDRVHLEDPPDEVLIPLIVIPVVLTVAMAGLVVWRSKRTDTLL
How it was run: (§1)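 Thawed cells in HBSS/0.1% BSA/25 mM HEPES pH 7.4 with 0.5 mM IBMX were incubated with peptides 30 min at room temperature; cAMP read by HTRF. EC50 from 4-parameter fit of % activation relative to maximal amylin or calcitonin effect.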

[2] = biological target: T2, human calcitonin receptor (hCTR) (Homo sapiens, UniProt P30988); experiment: cAMP production in 1321N1 cells with stable recombinant expression of human calcitonin receptor (hCTR); assay type: cell-based; details: cAMP, 1321N1 cells, assay buffer with 0.1% BSA; read-out: EC50 (pM) hCTR
T2 construct: expressed in transfected cells
T2 sequence (P30988 25-474): T1 sequence (P30988 25-474)
How it was run: as §1

| Ratio (selectivity hAMYR vs hCTR, ratio of EC50 values at the two receptors) [1] | EC50 [1] [pM] | EC50 [2] [pM] | SMILES |
| --- | --- | --- | --- |
| 8 | 801 | 6810 | CC[C@H](C)[C@H](NC(=O)[C@@H]1CCCN1C(=O)CNC(=O)[C@H](Cc1ccccc1)NC(=O)[C@H](CC(N)=O)NC(=O)[C@H](CC(N)=O)NC(=O)[C@H](CO)NC(=O)[C@H](CO)NC(=O)[C@H](Cc1c[nH]cn1)NC(=O)[C@@H](NC(=O)[C@H](CC(C)C)NC(=O)[C@H](Cc1ccccc1)NC(=O)[C@H](CC(N)=O)NC(=O)[C@H](C)NC(=O)[C@H](CC(C)C)NC(=O)[C@H](CCCNC(=N)N)NC(=O)[C@H](CCC(N)=O)NC(=O)[C@@H](NC(=O)[C@H](C)NC(=O)[C@@H]1CSSC[C@H](NC(=O)[C@H](CCCCN)NC(=O)[C@@H](N)CCCCNC(=O)CC[C@H](NC(=O)CCCCCCCCCCCCCCCCC(=O)O)C(=O)O)C(=O)N[C@@H](CC(N)=O)C(=O)N[C@@H]([C@@H](C)O)C(=O)N[C@@H](C)C(=O)N[C@@H]([C@@H](C)O)C(=O)N1)[C@@H](C)O)C(C)C)C(=O)NC(C)(C)C(=O)N1CCC[C@H]1C(=O)N1CCC[C@H]1C(=O)N[C@H](C(=O)N[C@@H](CC(N)=O)C(=O)N[C@H](C(=O)NCC(=O)N[C@@H](CO)C(=O)N[C@@H](CC(N)=O)C(=O)N[C@H](C(=O)N[C@@H](Cc1ccc(O)cc1)C(N)=O)[C@@H](C)O)C(C)C)[C@@H](C)O [Peptide 108, K(γE-C18diacid)K[CNTATC]ATQRLANFLVHSSNNFGPI(Aib)PPTNVGSNTY-amide] (H-K([γGlu-C18 diacid])KCNTATCATQRLANFLVHSSNNFGPI[Aib]PPTNVGSNTY-NH2; disulfide 3-8; N-terminus assumed) |
| 2 | 82 | 176 | CC[C@H](C)[C@H](NC(=O)[C@@H]1CCCN1C(=O)CNC(=O)[C@H](Cc1ccccc1)NC(=O)C(C)(C)NC(=O)[C@H](CC(N)=O)NC(=O)[C@H](CO)NC(=O)[C@H](CO)NC(=O)[C@H](Cc1c[nH]cn1)NC(=O)[C@@H](NC(=O)[C@H](CC(C)C)NC(=O)[C@H](Cc1ccccc1)NC(=O)[C@H](CC(N)=O)NC(=O)[C@H](C)NC(=O)[C@H](CC(C)C)NC(=O)[C@H](CCCNC(=N)N)NC(=O)[C@H](CCC(N)=O)NC(=O)[C@@H](NC(=O)[C@H](C)NC(=O)[C@@H]1CSSC[C@H](NC(=O)[C@H](CCCCN)NC(=O)[C@@H](N)CCCCNC(=O)CC[C@H](NC(=O)CCCCCCCCCCCCCCCCC(=O)O)C(=O)O)C(=O)N[C@@H](CC(N)=O)C(=O)N[C@@H]([C@@H](C)O)C(=O)N[C@@H](C)C(=O)N[C@@H]([C@@H](C)O)C(=O)N1)[C@@H](C)O)C(C)C)C(=O)N[C@@H](CC(C)C)C(=O)N1CCC[C@H]1C(=O)N1CCC[C@H]1C(=O)N[C@H](C(=O)N[C@@H](CC(N)=O)C(=O)N[C@H](C(=O)NCC(=O)N[C@@H](CO)C(=O)N[C@@H](CC(N)=O)C(=O)N[C@H](C(=O)N[C@@H](Cc1ccc(O)cc1)C(N)=O)[C@@H](C)O)C(C)C)[C@@H](C)O [Peptide 109, K(γE-C18diacid)K[CNTATC]ATQRLANFLVHSSN(Aib)FGPILPPTNVGSNTY-amide] (H-K([γGlu-C18 diacid])KCNTATCATQRLANFLVHSSN[Aib]FGPILPPTNVGSNTY-NH2; disulfide 3-8; N-terminus assumed) |
| 3 | 204 | 541 | CC[C@H](C)[C@H](NC(=O)[C@@H]1CCCN1C(=O)C(C)(C)NC(=O)[C@H](Cc1ccccc1)NC(=O)[C@H](CC(N)=O)NC(=O)[C@H](CC(N)=O)NC(=O)[C@H](CO)NC(=O)[C@H](CO)NC(=O)[C@H](Cc1c[nH]cn1)NC(=O)[C@@H](NC(=O)[C@H](CC(C)C)NC(=O)[C@H](Cc1ccccc1)NC(=O)[C@H](CC(N)=O)NC(=O)[C@H](C)NC(=O)[C@H](CC(C)C)NC(=O)[C@H](CCCNC(=N)N)NC(=O)[C@H](CCC(N)=O)NC(=O)[C@@H](NC(=O)[C@H](C)NC(=O)[C@@H]1CSSC[C@H](NC(=O)[C@H](CCCCN)NC(=O)[C@@H](N)CCCCNC(=O)CC[C@H](NC(=O)CCCCCCCCCCCCCCCCC(=O)O)C(=O)O)C(=O)N[C@@H](CC(N)=O)C(=O)N[C@@H]([C@@H](C)O)C(=O)N[C@@H](C)C(=O)N[C@@H]([C@@H](C)O)C(=O)N1)[C@@H](C)O)C(C)C)C(=O)N[C@@H](CC(C)C)C(=O)N1CCC[C@H]1C(=O)N1CCC[C@H]1C(=O)N[C@H](C(=O)N[C@@H](CC(N)=O)C(=O)N[C@H](C(=O)NCC(=O)N[C@@H](CO)C(=O)N[C@@H](CC(N)=O)C(=O)N[C@H](C(=O)N[C@@H](Cc1ccc(O)cc1)C(N)=O)[C@@H](C)O)C(C)C)[C@@H](C)O [Peptide 110, K(γE-C18diacid)K[CNTATC]ATQRLANFLVHSSNNF(Aib)PILPPTNVGSNTY-amide] (H-K([γGlu-C18 diacid])KCNTATCATQRLANFLVHSSNNF[Aib]PILPPTNVGSNTY-NH2; disulfide 3-8; N-terminus assumed) |
| 5 | 403 | 1880 | CC[C@H](C)[C@H](NC(=O)[C@@H]1CCCN1C(=O)CNC(=O)[C@H](Cc1ccccc1)NC(=O)[C@H](Cc1c[nH]cn1)NC(=O)[C@H](CC(N)=O)NC(=O)[C@H](CO)NC(=O)[C@H](CO)NC(=O)[C@H](Cc1c[nH]cn1)NC(=O)[C@@H](NC(=O)[C@H](CC(C)C)NC(=O)[C@H](Cc1ccccc1)NC(=O)[C@H](CC(N)=O)NC(=O)[C@H](C)NC(=O)[C@H](CC(C)C)NC(=O)[C@H](CCCNC(=N)N)NC(=O)[C@H](CCC(N)=O)NC(=O)[C@@H](NC(=O)[C@H](C)NC(=O)[C@@H]1CSSC[C@H](NC(=O)[C@H](CCCCN)NC(=O)[C@@H](N)CCCCNC(=O)CC[C@H](NC(=O)CCCCCCCCCCCCCCCCC(=O)O)C(=O)O)C(=O)N[C@@H](CC(N)=O)C(=O)N[C@@H]([C@@H](C)O)C(=O)N[C@@H](C)C(=O)N[C@@H]([C@@H](C)O)C(=O)N1)[C@@H](C)O)C(C)C)C(=O)N[C@@H](CC(C)C)C(=O)N1CCC[C@H]1C(=O)N1CCC[C@H]1C(=O)N[C@H](C(=O)N[C@@H](CC(N)=O)C(=O)N[C@H](C(=O)NCC(=O)N[C@@H](CO)C(=O)N[C@@H](CCC(=O)O)C(=O)N[C@H](C(=O)N[C@@H](Cc1ccc(O)cc1)C(N)=O)[C@@H](C)O)C(C)C)[C@@H](C)O [Peptide 111] (H-K([γGlu-C18 diacid])KCNTATCATQRLANFLVHSSNHFGPILPPTNVGSETY-NH2; disulfide 3-8; N-terminus assumed) |
| 2 | 417 | 792 | CC[C@H](C)[C@H](NC(=O)[C@H](CO)NC(=O)[C@H](Cc1c[nH]cn1)NC(=O)[C@@H](NC(=O)[C@H](CC(C)C)NC(=O)[C@H](Cc1ccccc1)NC(=O)[C@H](CC(N)=O)NC(=O)[C@H](C)NC(=O)[C@H](CC(C)C)NC(=O)[C@H](CCCNC(=N)N)NC(=O)[C@H](CCC(N)=O)NC(=O)[C@@H](NC(=O)[C@H](C)NC(=O)[C@@H]1CSSC[C@H](NC(=O)[C@@H](N)CCCCNC(=O)CC[C@H](NC(=O)CC[C@H](NC(=O)CCCCCCCCCCCCCCCCCCC(=O)O)C(=O)O)C(=O)O)C(=O)N[C@@H](CC(N)=O)C(=O)N[C@@H]([C@@H](C)CC)C(=O)N[C@@H](C)C(=O)N[C@@H]([C@@H](C)O)C(=O)N1)[C@@H](C)O)C(C)C)C(=O)N[C@@H](C)C(=O)N[C@@H](CC(N)=O)C(=O)N[C@@H](Cc1ccccc1)C(=O)NCC(=O)N1CCC[C@H]1C(=O)N[C@H](C(=O)N[C@@H](CC(C)C)C(=O)N1CCC[C@H]1C(=O)N1CCC[C@H]1C(=O)N[C@H](C(=O)N[C@@H](CC(N)=O)C(=O)N[C@H](C(=O)NCC(=O)N[C@@H](CO)C(=O)N[C@@H](CCCNC(=N)N)C(=O)N[C@H](C(=O)N[C@@H](Cc1ccc(O)cc1)C(N)=O)[C@@H](C)O)C(C)C)[C@@H](C)O)[C@@H](C)CC [Peptide 118] (H-K([γGlu-γGlu-C20 diacid])CNIATCATQRLANFLVHSIANFGPILPPTNVGSRTY-NH2; disulfide 2-7; N-terminus assumed) |
